Data reported in patent US10526316B2, “Quinoxaline and pyridopyrazine derivatives as PI3Kβ inhibitors” (Janssen Pharmaceutica NV, priority 2015, dated 2020).
Where two headings read alike, the source gives them in different places.

How the values were obtained:
kinase enzymes [1] = target: T1, kinase enzymes (Homo sapiens, UniProt P42345); experiment: Enzyme binding assay (KINOMEscan, DiscoveRx), further kinases of Table A; details: MTOR_h
T1 construct: purchased DiscoveRx Corporation, San Diego (contract service, KINOMEscan)
Procedure: (§1) Enzyme Binding Assays (KINOMEscan®)
(§2) Kinase enzyme binding affinities of compounds disclosed herein were determined using the KINOMEscan technology performed by DiscoveRx Corporation, San Diego, Calif., USA (www.kinomescan.com).

kinase enzymes [2] = target: T2, kinase enzymes (Homo sapiens, UniProt P48736); experiment: as above; details: PIK3Cγ_h
T2 construct: purchased DiscoveRx Corporation, San Diego (contract service, KINOMEscan)
T2 sequence (P48736 whole entry): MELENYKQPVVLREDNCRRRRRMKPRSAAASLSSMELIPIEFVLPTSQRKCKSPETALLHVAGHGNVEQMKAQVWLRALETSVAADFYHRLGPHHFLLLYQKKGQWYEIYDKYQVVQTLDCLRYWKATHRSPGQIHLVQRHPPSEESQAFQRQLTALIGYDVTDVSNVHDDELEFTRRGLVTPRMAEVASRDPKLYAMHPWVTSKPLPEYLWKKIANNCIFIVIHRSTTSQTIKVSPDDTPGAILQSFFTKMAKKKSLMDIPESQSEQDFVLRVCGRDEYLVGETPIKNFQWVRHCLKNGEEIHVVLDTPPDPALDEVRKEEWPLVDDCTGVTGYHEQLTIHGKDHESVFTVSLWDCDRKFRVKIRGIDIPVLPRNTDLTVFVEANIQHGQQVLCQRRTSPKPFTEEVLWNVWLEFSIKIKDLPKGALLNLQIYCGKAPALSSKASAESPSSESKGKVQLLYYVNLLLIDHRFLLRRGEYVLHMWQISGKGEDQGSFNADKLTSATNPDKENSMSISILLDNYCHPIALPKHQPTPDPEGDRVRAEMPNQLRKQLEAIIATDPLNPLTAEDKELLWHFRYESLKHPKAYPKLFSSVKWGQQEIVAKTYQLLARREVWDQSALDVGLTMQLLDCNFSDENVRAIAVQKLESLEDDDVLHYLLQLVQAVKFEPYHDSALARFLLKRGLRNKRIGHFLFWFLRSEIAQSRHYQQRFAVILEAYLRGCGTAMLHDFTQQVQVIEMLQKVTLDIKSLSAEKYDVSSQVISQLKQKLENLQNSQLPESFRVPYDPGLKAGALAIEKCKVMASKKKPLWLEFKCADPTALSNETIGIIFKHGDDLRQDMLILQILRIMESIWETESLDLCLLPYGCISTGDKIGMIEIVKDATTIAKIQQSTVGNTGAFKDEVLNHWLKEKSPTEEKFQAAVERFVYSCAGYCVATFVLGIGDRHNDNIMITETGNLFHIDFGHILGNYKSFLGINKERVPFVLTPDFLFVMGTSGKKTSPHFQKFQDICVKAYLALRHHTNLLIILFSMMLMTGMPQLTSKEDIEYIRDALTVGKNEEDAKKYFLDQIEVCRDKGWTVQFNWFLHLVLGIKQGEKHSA
Procedure: as §1, §2

kinase enzymes [3] = target: T3, kinase enzymes (Homo sapiens, UniProt P42336); experiment: as above; details: PIK3Cα_h
T3 construct: purchased DiscoveRx Corporation, San Diego (contract service, KINOMEscan)
T3 sequence (P42336 whole entry): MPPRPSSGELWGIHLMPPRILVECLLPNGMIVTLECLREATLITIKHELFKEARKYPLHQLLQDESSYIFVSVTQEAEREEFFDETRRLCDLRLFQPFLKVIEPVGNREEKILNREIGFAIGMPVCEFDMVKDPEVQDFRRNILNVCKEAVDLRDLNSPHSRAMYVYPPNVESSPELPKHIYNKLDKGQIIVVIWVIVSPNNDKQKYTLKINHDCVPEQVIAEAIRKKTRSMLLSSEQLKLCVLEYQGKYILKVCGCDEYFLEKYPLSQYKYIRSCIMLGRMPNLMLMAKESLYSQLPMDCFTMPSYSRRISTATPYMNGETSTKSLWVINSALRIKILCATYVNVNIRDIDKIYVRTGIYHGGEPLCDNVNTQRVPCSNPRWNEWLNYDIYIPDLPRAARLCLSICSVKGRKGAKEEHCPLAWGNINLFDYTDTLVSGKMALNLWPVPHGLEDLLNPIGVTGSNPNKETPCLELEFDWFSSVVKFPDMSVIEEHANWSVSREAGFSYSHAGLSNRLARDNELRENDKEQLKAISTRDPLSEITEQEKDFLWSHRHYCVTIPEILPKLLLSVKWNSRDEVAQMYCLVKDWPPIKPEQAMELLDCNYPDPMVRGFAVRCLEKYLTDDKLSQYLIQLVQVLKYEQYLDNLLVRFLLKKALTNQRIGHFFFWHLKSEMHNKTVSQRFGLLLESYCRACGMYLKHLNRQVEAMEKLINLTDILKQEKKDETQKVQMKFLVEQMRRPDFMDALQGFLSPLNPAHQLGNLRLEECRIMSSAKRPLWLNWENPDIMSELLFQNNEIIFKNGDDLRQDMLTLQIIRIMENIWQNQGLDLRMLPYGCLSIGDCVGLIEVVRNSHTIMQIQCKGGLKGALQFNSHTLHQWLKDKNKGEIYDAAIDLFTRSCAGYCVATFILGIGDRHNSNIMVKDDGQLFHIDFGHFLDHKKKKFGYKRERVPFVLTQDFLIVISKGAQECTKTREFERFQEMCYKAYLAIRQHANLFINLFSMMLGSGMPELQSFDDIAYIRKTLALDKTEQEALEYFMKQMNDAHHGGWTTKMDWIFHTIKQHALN
Procedure: as §1, §2

PI3Kβ = target: T4, PI3Kβ (Homo sapiens, UniProt P42338); experiment: Enzyme binding assay (KINOMEscan, DiscoveRx); details: PIK3Cβ_h, read-out: Kd PIK3Cβ_h
T4 construct: purchased DiscoveRx Corporation, San Diego (contract service, KINOMEscan)
T4 sequence (P42338 whole entry): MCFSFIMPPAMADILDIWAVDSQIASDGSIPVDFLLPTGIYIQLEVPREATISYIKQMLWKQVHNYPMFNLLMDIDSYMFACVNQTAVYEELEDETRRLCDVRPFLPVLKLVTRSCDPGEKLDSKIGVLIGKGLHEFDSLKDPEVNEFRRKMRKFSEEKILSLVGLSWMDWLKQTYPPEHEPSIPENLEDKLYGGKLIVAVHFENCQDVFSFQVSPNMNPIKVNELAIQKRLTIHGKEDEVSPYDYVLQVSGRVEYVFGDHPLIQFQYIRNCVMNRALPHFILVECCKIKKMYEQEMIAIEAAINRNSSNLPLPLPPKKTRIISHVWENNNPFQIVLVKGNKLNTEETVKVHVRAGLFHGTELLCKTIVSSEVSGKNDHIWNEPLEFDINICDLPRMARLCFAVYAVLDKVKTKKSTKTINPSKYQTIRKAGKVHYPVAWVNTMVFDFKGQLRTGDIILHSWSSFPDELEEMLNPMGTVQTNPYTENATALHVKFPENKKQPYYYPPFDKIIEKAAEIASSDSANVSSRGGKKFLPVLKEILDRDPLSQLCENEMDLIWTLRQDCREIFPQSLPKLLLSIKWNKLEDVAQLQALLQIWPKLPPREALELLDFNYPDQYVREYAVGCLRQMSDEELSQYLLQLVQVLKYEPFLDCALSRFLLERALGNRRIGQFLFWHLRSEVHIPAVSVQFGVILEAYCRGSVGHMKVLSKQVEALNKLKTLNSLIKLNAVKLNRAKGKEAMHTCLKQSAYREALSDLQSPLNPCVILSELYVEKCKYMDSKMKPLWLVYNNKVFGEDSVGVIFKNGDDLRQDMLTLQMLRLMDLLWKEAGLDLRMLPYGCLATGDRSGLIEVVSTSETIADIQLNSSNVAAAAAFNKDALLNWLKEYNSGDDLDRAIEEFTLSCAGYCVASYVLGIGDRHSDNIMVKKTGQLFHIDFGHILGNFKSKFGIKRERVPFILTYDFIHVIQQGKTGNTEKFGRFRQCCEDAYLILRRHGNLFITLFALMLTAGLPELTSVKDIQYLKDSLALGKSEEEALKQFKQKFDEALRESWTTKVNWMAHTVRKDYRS
Procedure: as §1
Kinase enzyme binding affinities of compounds disclosed herein were determined using the KINOMEscan technology performed by DiscoveRx Corporation, San Diego, Calif., USA (www.kinomescan.com). Table A reports the obtained Kd values (nM), with the Kd being the inhibitor binding constant: […]

PI3Kδ = target: T5, PI3Kδ (Homo sapiens, UniProt O00329); experiment: Enzyme binding assay (KINOMEscan, DiscoveRx); details: PIK3Cδ_h
T5 construct: purchased DiscoveRx Corporation, San Diego (contract service, KINOMEscan)
T5 sequence (O00329 1-1044): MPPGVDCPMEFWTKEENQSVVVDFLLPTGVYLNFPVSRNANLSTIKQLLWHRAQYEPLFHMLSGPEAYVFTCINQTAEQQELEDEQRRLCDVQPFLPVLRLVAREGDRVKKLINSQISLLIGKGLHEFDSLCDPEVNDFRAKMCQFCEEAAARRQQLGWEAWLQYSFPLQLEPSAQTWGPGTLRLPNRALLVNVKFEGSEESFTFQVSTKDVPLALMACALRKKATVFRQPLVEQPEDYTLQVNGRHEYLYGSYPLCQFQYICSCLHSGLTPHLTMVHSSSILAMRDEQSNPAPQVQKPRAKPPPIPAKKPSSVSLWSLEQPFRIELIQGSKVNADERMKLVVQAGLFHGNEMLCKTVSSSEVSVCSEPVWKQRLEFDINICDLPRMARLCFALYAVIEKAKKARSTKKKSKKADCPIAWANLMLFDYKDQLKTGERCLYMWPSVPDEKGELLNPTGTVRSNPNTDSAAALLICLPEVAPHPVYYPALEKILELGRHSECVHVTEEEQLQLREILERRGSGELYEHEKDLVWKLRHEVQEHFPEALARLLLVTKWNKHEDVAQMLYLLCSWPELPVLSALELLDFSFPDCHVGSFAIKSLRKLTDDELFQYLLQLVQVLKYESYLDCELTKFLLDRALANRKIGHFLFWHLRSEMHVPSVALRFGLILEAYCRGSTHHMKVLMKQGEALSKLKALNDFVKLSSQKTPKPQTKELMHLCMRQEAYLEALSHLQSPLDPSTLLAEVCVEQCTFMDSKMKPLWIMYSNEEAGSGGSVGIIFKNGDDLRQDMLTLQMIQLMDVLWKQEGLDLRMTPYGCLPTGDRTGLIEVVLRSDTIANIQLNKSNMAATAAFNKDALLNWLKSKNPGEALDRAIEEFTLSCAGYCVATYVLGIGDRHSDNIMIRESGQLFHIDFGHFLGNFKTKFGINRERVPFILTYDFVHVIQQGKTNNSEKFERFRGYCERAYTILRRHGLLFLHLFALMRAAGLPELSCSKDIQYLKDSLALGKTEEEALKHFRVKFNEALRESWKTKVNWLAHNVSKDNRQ
Procedure: as §1, §2

[4] = test system: Akt phosphorylated at Thr308 in PC-3 cells; experiment: Cellular assay: phosphorylation of Akt at Thr308 in PC-3 cells (MSD ELISA); assay type: cell-based; details: PC-3 cells, 60 min compound incubation, MSD ELISA, read-out: IC50 pAkt_Thr308
Procedure: (§3) Cellular activity of PI3KP inhibitors was determined by quantifying the phosphorylation of Akt in PC-3 cells. Akt phosphorylated at Ser473 and Thr308 were measured using an enzyme-linked immunosorbent assay (ELISA; Meso Scale Discovery (MSD), Gaithersburg. Md.) and specific primary antibodies from MSD.
(§4) On day 2, compound or DMSO (0.3%) was added and cells were further incubated for 60 min at 37° C. 5% CO2 in a total volume of 100 μl of medium.
(§5) The phosphoprotein assay was executed according to vendor instructions in the Phospho-Akt (Ser473) Assay Whole Cell Lysate Kit (MSD # K15100D-3) and the Phospho-Akt (Thr308) Assay Whole Cell Lysate Kit (MSD # K151DYD-3) using the lysis, blocking and wash buffer provided.
(§6) Briefly, at the end of the cell treatment period, media were removed by aspiration and adherent cells were lysed in 50 μl ice-cold lysis buffer. MSD plates are supplied pre-coated with capture antibodies for Phospho-Akt (Ser473 and Thr308). After blocking, lysates from tissue culture plates were added and plates were washed. Then, a solution containing the detection antibody (anti-total Akt conjugated with an electrochemiluminescent compound-MSD Sulfo-tag label) was added. The signals were detected using an MSD SECTOR Imager 6000 and are proportional to the phospho-Akt titres.
(§7) Data were processed. […] From these concentration-response curves, the IC50 values were calculated. Five concentrations were used for curve fitting.

[5] = test system: Akt phosphorylated at Ser473 in PC-3 cells; experiment: Cellular assay: phosphorylation of Akt at Ser473 in PC-3 cells (MSD ELISA); assay type: cell-based; details: PC-3 cells, 60 min compound incubation, MSD ELISA, read-out: IC50 pAkt_S473
Procedure: as §3, §4, §5, §6, §7

Compound | Kd (kinase enzymes [1]) [nM] | Kd (kinase enzymes [2]) [nM] | Kd (kinase enzymes [3]) [nM] | Kd (PI3Kβ) [nM] | Kd (PI3Kδ) [nM] | IC50 [4] [nM] | IC50 [5] [nM] | IC50 ([4]; Homo sapiens, PC-3, 1 h) [nM] | IC50 ([5]; Homo sapiens, PC-3, 1 h) [nM]
Cc1cccc(N(C)C(C)c2cc(C(=O)N(C)C)cc3ncc(N4CCOCC4)nc23)c1 (single isomer, unassigned) [Compound 128] | 21400 | 12300 | 4900 | 1120 | 15100 | > 513 | > 513 | – | –
CNCCNC(=O)c1cc(C(C)Nc2cccc(F)c2)c2nc(N3CCOCC3)cnc2c1 (single isomer, unassigned) [Compound 138] | 30900 | 2150 | 398 | 0.1 | 56 | 2 | 3 | – | –
CNCCNC(=O)c1cc(C(C)Nc2cccc(F)c2)c2nc(N3CCOCC3)cnc2c1 (single isomer, unassigned) [Compound 139] | 18600 | 3430 | 3760 | 41 | 4420 | 249 | 132 | – | –
CNCCN(C)C(=O)c1cc(C(C)Nc2cc(F)cc(F)c2)c2nc(N3CCOCC3)cnc2c1 (single isomer, unassigned) [Compound 152] | > 30200 | 8710 | 3980 | 10 | 1820 | 87 | 62 | – | –
CC(Nc1cc(F)cc(F)c1)c1cc(CO)cc2ncc(N3CCOCC3)nc12 (single isomer, unassigned) [Compound 154a] | 8510 | 741 | 437 | 1 | 98 | 23 | 30 | – | –
CC(Nc1cc(F)cc(F)c1)c1cc(CN2CCS(=O)(=O)CC2)cc2ncc(N3CCOCC3)nc12 (single isomer, unassigned) [Compound 156] | > 30200 | > 30200 | 398 | 2 | 363 | 51 | 42 | – | –
CC(Nc1cc(F)cc(F)c1)c1cc(CN2CCS(=O)(=O)CC2)cc2ncc(N3CCOCC3)nc12 (single isomer, unassigned) [Compound 157] | > 30200 | > 30200 | 13200 | 102 | 20000 | 417 | > 513 | – | –
CC(Nc1cc(F)cc(F)c1)c1cc(C(=O)N(C)C)cc2ncc(C3=CCOCC3)nc12 (single isomer, unassigned) [Compound 158] | > 30200 | 2290 | 339 | 0.4 | 120 | 20 | 23 | – | –
CC(Nc1cc(F)cc(F)c1)c1cc(C(=O)N(C)C)cc2ncc(C3=CCOCC3)nc12 (single isomer, unassigned) [Compound 159] | > 30200 | > 30200 | > 30200 | 110 | 23400 | > 513 | > 513 | – | –
CC(Nc1cc(F)cc(F)c1)c1cc(CNCC(F)(F)F)cc2ncc(N3CCOCC3)nc12 (single isomer, unassigned) [Compound 163] | > 30200 | > 30200 | > 30200 | 832 | 16200 | > 513 | > 513 | – | –
CNCCNC(=O)c1cc(C(C)Oc2cc(F)cc(F)c2)c2nc(N3CCOCC3)cnc2c1 (single isomer, unassigned) [Compound 166] | 21900 | 14800 | 16600 | 19 | 4070 | > 513 | > 513 | – | –
CNCCOCCN(C)C(=O)c1cc(C(C)Nc2cc(F)cc(F)c2)c2nc(N3CCOCC3)cnc2c1 (single isomer, unassigned) [Compound 175] | > 30200 | 2570 | 1700 | 0.4 | 112 | 11 | 9 | – | –
CC(Nc1cc(F)cc(F)c1)c1cc(COCCO)cc2ncc(N3CCOCC3)nc12 (single isomer, unassigned) [Compound 177] | 24000 | 6920 | 1380 | 2 | 170 | 42 | 60 | – | –
CC(Nc1cc(F)cc(F)c1)c1cc(COCCO)cc2ncc(N3CCOCC3)nc12 (single isomer, unassigned) [Compound 178] | > 30200 | > 30200 | > 30200 | 1100 | 16600 | > 513 | > 513 | – | –
CC(Nc1cc(F)cc(F)c1)c1cc(C2=NC(C)(C)CO2)cc2ncc(N3CCOCC3)nc12 (single isomer, unassigned) [Compound 187] | > 30200 | > 30200 | > 30200 | 1050 | > 30200 | – | – | > 513 | > 513
CC(Nc1cc(F)cc(F)c1)c1cc(C(=O)NCCO)cc2ncc(N3CCOCC3)nc12 (single isomer, unassigned) [Compound 189] | > 30200 | 4470 | > 30200 | 2510 | 28200 | > 513 | > 513 | – | –
CC(Nc1cc(F)cc(F)c1)c1cc(CN2CCO[C@H](CO)C2)cc2ncc(N3CCOCC3)nc12 (single isomer, unassigned) [Compound 194] | > 30200 | > 30200 | > 30200 | 1820 | > 30200 | – | – | > 513 | > 513
CC(Nc1cc(F)cc(F)c1)c1cc(CN2CCOCC23COC3)cc2ncc(N3CCOCC3)nc12 (single isomer, unassigned) [Compound 195] | > 30200 | 12900 | 1950 | 2 | 479 | 47 | ~102 | – | –
CC(Nc1cc(F)cc(F)c1)c1cc(CN2CCO[C@H](CO)C2)cc2ncc(N3CCOCC3)nc12 (single isomer, unassigned) [Compound 196] | > 30200 | 15800 | 2820 | 5 | 813 | – | – | 91 | 182
CC(Nc1cc(F)cc(F)c1)c1cc(C(=O)NC[C@@H](C)O)cc2ncc(N3CCOCC3)nc12 (single isomer, unassigned) [Compound 202] | 6030 | 3320 | > 30200 | 3950 | > 30200 | > 513 | > 513 | – | –
